In patent publication US12496298B2, “Natural killer cells” (Imperial College Innovations Limited, priority 2017, dated 2025):

What was measured:
E4bp4 = assay: RT-qPCR relative expression of E4bp4 in cultured HPCs; type: cell-based, mouse
Procedure: (§1) FIG. 8: HPCs were cultured with or without 5 μM SR8278 added on Day 2. At Day 3, 4 and 5, cells were harvested in order to quantify their relative […] by RT-qPCR. The graphs show relative expression of (A) E4bp4, (B) Id2 and (C) Eomes normalized to the housekeeping gene, Hprt.
(§2) HPCs isolated from a WT mouse were cultured as previously (FIG. 2) but the cells were harvested and analysed using RT-qPCR on Day 3, 4 and 5. The relative expression of the E4bp4, Id2 and Eomes genes was compared to the housekeeping gene, Hprt. At Day 4, E4bp4, Id2 and Eomes expression was higher in SR8278 treated samples when compared to the ‘No drug’ control (FIG. 8). The increase in E4bp4 expression disappeared at Day 5 but the increase of Id2 expression remained (FIG. 8B). The upregulation of E4bp4 and its downstream targets happens in a matter of hours and only stays high for a defined period of time.
(§3) RNA was extracted using Qiagen RNeasy Micro Kit according to the manufacture's protocol (Qiagen). Centrifugation was done at 8000 g for 15 seconds and the flow through discarded. Briefly, 350 μl of Buffer RLT+10% β-Mercaptoethanol were added to the harvested cells. […] The concentration of RNA in each sample was measured using Nanodrop, and all samples were diluted to the same working concentration. […]

Id2 = assay: RT-qPCR relative expression of Id2 in cultured HPCs; type: cell-based, mouse
Procedure: as §1, §2, §3

Eomes = assay: RT-qPCR relative expression of Eomes in cultured HPCs; type: cell-based, mouse; details: 5 μM added Day 2, harvested Day 4
Procedure: as §1, §2, §3

Human CD34+ cells = assay: Toxicity to human CD34+ cells in NK cell culture; type: cell-based
Text: The hypothesis that SR8278 increases NK cells production would not have any potential therapeutic value if it was not also true for human NK cell production. Therefore, the effect of SR8278 on human NK cell production from human HPCs was examined. Human HPCs were obtained as the CD34^+ population purified from umbilical cord blood from collaborators at the Anthony Nolan Research Institute, London. Human NK cell development goes through a similar developmental pathway to mouse NK cell development. […]
CD34^+ umbilical cord blood progenitor cells were provided by Anthony Nolan Research Institute, University College London. […] Cells were thawed, counted and then plated on EL08.1D2 plates prepared previously at a concentration of 1000 cells/well in human NK cells differentiation medium (Alpha-MEM plus 20% Human AB serum (Invitrogen), 50 μM β-Mercaptoethanol and 1% P/S along with 5 ng/ml human-IL-3 (Peprotech), 20 ng/ml human-IL-7 (Peprotech), 10 ng/ml human-Flt3-L (Peprotech), 20 ng/ml human-SCF (Peprotech) and 10 ng/ml human-IL-15 (Peprotech). Note that human-IL-3 is only needed for the first week of culture. Cells were left in the culture at 37° C., 5% CO2 for 14 or 16 days with a change of human NK differentiation medium at day 7 and 12.

[1] = 5 μM added Day 2, harvested Day 4
[2] = 5 μM added Day 2, harvested Day 5

CCOC(=O)C1Cc2ccccc2CN1C(=O)c1ccc(SC)s1 (stereo not shown) [SR8278, 1,2,3,4-Tetrahydro-2-[[5-(methylthio)-2-thienyl]carbonyl]-3-isoquinolinecarboxylic acid ethyl ester]
E4bp4 expression relative to Hprt, compared to 'No drug' control (E4bp4; [1]): higher
increase in E4bp4 expression (E4bp4; [2]): disappeared
Id2 expression relative to Hprt, compared to 'No drug' control (Id2; [1]): higher
increase of Id2 expression (Id2; [2]): remained
Eomes expression relative to Hprt, compared to 'No drug' control (Eomes): higher
toxicity to human CD34+ cells (Human CD34+ cells; 5 μM): not toxic
toxicity to human CD34+ cells (Human CD34+ cells; 10 μM): completely toxic
